Columns and labels:
[1] = molecular target: angiotensin-converting enzyme (ACE) (Homo sapiens, UniProt P12821); experiment: ACE activity of HUVECs (hippuric acid release from HHL) after 20-min incubation with AGS-IV; type: cell-based
calcineurin (CN) = test system: T1, calcineurin (CN); experiment: calcineurin activity kit (RII phosphopeptide, malachite green) in rat VSMCs after 24-h pretreatment; type: cell-based
T1 construct: gene Ppp3ca; with calcineurin B (CnB, regulatory subunit)

angiotensin-converting enzyme (ACE), sequence (P12821 30-1306): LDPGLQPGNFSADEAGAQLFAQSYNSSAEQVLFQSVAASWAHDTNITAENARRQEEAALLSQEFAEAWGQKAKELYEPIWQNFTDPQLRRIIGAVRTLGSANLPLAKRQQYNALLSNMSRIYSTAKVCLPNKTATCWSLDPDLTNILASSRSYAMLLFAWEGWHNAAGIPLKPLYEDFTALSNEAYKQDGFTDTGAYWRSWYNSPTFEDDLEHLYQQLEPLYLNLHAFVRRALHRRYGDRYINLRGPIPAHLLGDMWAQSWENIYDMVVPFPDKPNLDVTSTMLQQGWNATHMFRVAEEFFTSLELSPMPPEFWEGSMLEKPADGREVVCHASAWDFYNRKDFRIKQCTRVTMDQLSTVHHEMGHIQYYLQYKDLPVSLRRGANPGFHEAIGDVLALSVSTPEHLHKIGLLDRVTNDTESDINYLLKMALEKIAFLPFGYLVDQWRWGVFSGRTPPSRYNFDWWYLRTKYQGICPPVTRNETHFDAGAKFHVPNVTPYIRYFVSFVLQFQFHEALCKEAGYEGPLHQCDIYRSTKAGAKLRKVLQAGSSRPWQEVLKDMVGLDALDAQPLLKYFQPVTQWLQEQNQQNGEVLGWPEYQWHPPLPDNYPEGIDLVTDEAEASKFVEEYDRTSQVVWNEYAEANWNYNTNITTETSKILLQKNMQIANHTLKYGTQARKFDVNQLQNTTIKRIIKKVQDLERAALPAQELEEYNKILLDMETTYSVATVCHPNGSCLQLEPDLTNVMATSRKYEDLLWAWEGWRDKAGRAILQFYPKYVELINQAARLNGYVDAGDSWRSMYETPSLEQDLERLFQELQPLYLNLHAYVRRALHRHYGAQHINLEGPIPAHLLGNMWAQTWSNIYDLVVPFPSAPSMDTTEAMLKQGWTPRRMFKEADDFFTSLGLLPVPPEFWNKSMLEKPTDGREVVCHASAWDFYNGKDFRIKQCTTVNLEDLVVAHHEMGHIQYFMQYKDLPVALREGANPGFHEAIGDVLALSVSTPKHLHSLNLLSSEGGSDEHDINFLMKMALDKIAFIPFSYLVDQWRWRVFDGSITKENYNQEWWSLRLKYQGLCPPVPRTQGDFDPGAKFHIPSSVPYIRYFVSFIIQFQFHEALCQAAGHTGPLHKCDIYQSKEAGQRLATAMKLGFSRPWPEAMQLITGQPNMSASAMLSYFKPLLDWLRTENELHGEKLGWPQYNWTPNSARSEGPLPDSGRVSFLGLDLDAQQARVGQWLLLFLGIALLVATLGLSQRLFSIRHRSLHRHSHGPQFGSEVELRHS

Molecule `CC(C)(O)[C@@H]1CC[C@](C)([C@H]2[C@@H](O)C[C@@]3(C)[C@@H]4C[C@H](O[C@@H]5O[C@H](CO)[C@@H](O)[C@H](O)[C@H]5O)[C@H]5C(C)(C)[C@@H](O[C@@H]6OC[C@@H](O)[C@H](O)[C@H]6O)CC[C@@]56C[C@@]46CC[C@]23C)O1` [AGS-IV, Astragaloside IV] has an IC50 [1] of 0.268 µM and an IC50 (calcineurin (CN)) of 0.403 µM.
